# Laboratory results as given in patent US4340609A, “Amidinourea derivative veterinary compositions for suppression of parasitemia” (William H. Rorer, Inc., priority 1980, dated 1982).
# Where two headings read alike, the source gives them in different places.
# Columns and labels:
# plasmodium berghei = assay: suppression of parasitemia in mice infected with plasmodium berghei; format: in vivo; details: for ED50: Plasmodium berghei, sc; for ED50 / Mean % Parasitemia / Mean % Suppression / % died: mice
# Experimental: Five representative amidinoureas were tested in mice infected with plasmodium berghei. The five compounds tested are the following:
# Groups of 10 mice each were used in seven doses totaling 70 mice per compound. The protozoal infection was induced by intraperitoneal injection of 5,000,000 parasitized blood cells from a donor. The compound was administered subcutaneously in doses ranging from 0.15 to 10 mg. per kg., suspended on 0.5% methacel solution (doses expressed as base). The compound was repeatedly injected on the day of inoculation (day 1), day 2 and day 3. Blood smears were performed on days 4, 5, 6 and 10.
# Untreated control but infected mice developed fulminating parasitemia of as high as 35% on day 10 and deaths occurred from day 12 to 14.
# LD50 in mice = details: mouse, in vivo
# [1] = s.c., 2.0 mg/kg on days 1-3, 4th day
# [2] = s.c., 2.0 mg/kg on days 1-3, 5th day
# [3] = s.c., 2.0 mg/kg on days 1-3, 6th day
# [4] = s.c., 2.0 mg/kg on days 1-3, 10th day
# [5] = s.c., 10.0 mg/kg on days 1-3, 4th day
# [6] = s.c., 10.0 mg/kg on days 1-3, 5th day
# [7] = s.c., 10.0 mg/kg on days 1-3, 6th day
# [8] = s.c., 10.0 mg/kg on days 1-3, 10th day
# [9] = s.c., .20 mg/kg on days 1-3, 4th day
# [10] = s.c., .20 mg/kg on days 1-3, 5th day
# [11] = s.c., .20 mg/kg on days 1-3, 6th day
# [12] = s.c., .20 mg/kg on days 1-3, 10th day
# [13] = s.c., .50 mg/kg on days 1-3, 4th day
# [14] = s.c., .50 mg/kg on days 1-3, 5th day
# [15] = s.c., .50 mg/kg on days 1-3, 6th day
# [16] = s.c., .50 mg/kg on days 1-3, 10th day
structure (smiles),measurement,setting,value
"Cc1cccc(C)c1NC(=O)NC(=N)NC(C)C.Cl [Compound E, 1-(2,6-dimethylphenyl)-3-(isopropylamidino)urea hydrochloride]",ED50,"plasmodium berghei; 96 h, s.c., levels of parasitemia, 4th day, read-out: SED50 (Suppressant Effective Dose50)",0.9 mg/kg
same,ED50,"plasmodium berghei; 120 h, s.c., levels of parasitemia, 5th day, read-out: SED50 (Suppressant Effective Dose50)",1.52 mg/kg
same,ED50,"plasmodium berghei; 144 h, s.c., levels of parasitemia, 6th day, read-out: SED50 (Suppressant Effective Dose50)",1.52 mg/kg
same,ED50,"plasmodium berghei; 240 h, s.c., levels of parasitemia, 10th day, read-out: SED50 (Suppressant Effective Dose50)",5.63 mg/kg
same,ED50,"plasmodium berghei; day 4 to day 10, read-out: HIGHEST SED50",5.63 mg/kg
same,ED50,"plasmodium berghei; day 4 to day 10, read-out: LOWEST SED50",0.9 mg/kg
same,FACTOR (HIGHEST SED50 ÷ LOWEST SED50),"plasmodium berghei; factor of change, day 4 to day 10, duration of action",6.26
same,Mean % Parasitemia,plasmodium berghei; [1],1.75%
same,Mean % Suppression,plasmodium berghei; [1],66.7%
same,Mean % Parasitemia,plasmodium berghei; [2],3.50%
same,Mean % Suppression,plasmodium berghei; [2],52.1%
same,Mean % Parasitemia,plasmodium berghei; [3],4.10%
same,Mean % Suppression,plasmodium berghei; [3],55.9%
same,Mean % Parasitemia,plasmodium berghei; [4],27.7%
same,Mean % Suppression,plasmodium berghei; [4],22.0%
same,% died,"plasmodium berghei; s.c., 2.0 mg/kg on days 1-3, 12th day",0%
same,% died,"plasmodium berghei; s.c., 2.0 mg/kg on days 1-3, 13th day",20%
same,% died,"plasmodium berghei; s.c., 2.0 mg/kg on days 1-3, 14th day",40%
same,Mean % Parasitemia,plasmodium berghei; [5],0%
same,Mean % Suppression,plasmodium berghei; [5],100.0%
same,Mean % Parasitemia,plasmodium berghei; [6],0%
same,Mean % Suppression,plasmodium berghei; [6],100.0%
same,Mean % Parasitemia,plasmodium berghei; [7],0%
same,Mean % Suppression,plasmodium berghei; [7],100.0%
same,Mean % Parasitemia,plasmodium berghei; [8],0%
same,Mean % Suppression,plasmodium berghei; [8],100.0%
same,% died,"plasmodium berghei; s.c., 10.0 mg/kg on days 1-3, 12th day",0%
same,% died,"plasmodium berghei; s.c., 10.0 mg/kg on days 1-3, 13th day",0%
same,% died,"plasmodium berghei; s.c., 10.0 mg/kg on days 1-3, 14th day",0%
same,Mean % Parasitemia,plasmodium berghei; [9],5.25%
same,Mean % Suppression,plasmodium berghei; [9],0%
same,Mean % Parasitemia,plasmodium berghei; [10],7.00%
same,Mean % Suppression,plasmodium berghei; [10],4.1%
same,Mean % Parasitemia,plasmodium berghei; [11],8.70%
same,Mean % Suppression,plasmodium berghei; [11],6.5%
same,Mean % Parasitemia,plasmodium berghei; [12],33.9%
same,Mean % Suppression,plasmodium berghei; [12],4.5%
same,% died,"plasmodium berghei; s.c., .20 mg/kg on days 1-3, 12th day",0%
same,% died,"plasmodium berghei; s.c., .20 mg/kg on days 1-3, 13th day",60%
same,% died,"plasmodium berghei; s.c., .20 mg/kg on days 1-3, 14th day",60%
same,Mean % Parasitemia,plasmodium berghei; [13],2.50%
same,Mean % Suppression,plasmodium berghei; [13],52.3%
same,Mean % Parasitemia,plasmodium berghei; [14],6.90%
same,Mean % Suppression,plasmodium berghei; [14],5.5%
same,Mean % Parasitemia,plasmodium berghei; [15],7.40%
same,Mean % Suppression,plasmodium berghei; [15],20.4%
same,Mean % Parasitemia,plasmodium berghei; [16],31.3%
same,Mean % Suppression,plasmodium berghei; [16],11.8%
same,% died,"plasmodium berghei; s.c., .50 mg/kg on days 1-3, 12th day",0%
same,% died,"plasmodium berghei; s.c., .50 mg/kg on days 1-3, 13th day",20%
same,% died,"plasmodium berghei; s.c., .50 mg/kg on days 1-3, 14th day",60%
same,LD50,LD50 in mice,82 to 135 mg/kg
